In US6875761B2 (Eisai Co., Ltd., priority 1997, dated 2005) one finds Ki data, which are given here for 30 compounds.

Assay [1] has as its target T1, serotonin 1A receptor (Rattus norvegicus, UniProt P19327).
T1 construct: To the receptor fraction of the hippocampus were added a test compound and 0.5 nM of [^3H]; 8-hydroxy-dipropylaminotetralin; from tissue; host or cells: rat hippocampus membrane fraction
T1 sequence (P19327 1-422): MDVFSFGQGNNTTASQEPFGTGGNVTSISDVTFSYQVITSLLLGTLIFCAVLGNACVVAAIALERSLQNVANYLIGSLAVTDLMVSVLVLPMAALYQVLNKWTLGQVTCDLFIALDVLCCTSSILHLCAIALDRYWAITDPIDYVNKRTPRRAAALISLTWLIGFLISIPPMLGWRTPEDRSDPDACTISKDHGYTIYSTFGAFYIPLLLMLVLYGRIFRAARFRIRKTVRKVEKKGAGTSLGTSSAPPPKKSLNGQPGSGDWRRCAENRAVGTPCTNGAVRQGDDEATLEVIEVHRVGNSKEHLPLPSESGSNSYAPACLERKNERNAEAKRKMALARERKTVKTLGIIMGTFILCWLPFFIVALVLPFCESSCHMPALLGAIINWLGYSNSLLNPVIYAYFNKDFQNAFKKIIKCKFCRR
In words: Binding test on [3H] 8-hydroxy-dipropylaminotetralin, hippocampus receptor fraction. Details: species or system SD rats. As to conditions: rat hippocampus receptor fraction, 0.5 nM [3H] 8-OH-DPAT, room temperature 30 min; read-out: 5HT1.

In assay [2] the target is T2, serotonin 2 receptor (Rattus norvegicus, UniProt P14842).
T2 construct: To the receptor fraction of the cerebral cortex were added a test compound and 0.3 nM of [^3H] ketanserin; from tissue; host or cells: rat cerebral cortex membrane fraction
T2 sequence (P14842 whole entry): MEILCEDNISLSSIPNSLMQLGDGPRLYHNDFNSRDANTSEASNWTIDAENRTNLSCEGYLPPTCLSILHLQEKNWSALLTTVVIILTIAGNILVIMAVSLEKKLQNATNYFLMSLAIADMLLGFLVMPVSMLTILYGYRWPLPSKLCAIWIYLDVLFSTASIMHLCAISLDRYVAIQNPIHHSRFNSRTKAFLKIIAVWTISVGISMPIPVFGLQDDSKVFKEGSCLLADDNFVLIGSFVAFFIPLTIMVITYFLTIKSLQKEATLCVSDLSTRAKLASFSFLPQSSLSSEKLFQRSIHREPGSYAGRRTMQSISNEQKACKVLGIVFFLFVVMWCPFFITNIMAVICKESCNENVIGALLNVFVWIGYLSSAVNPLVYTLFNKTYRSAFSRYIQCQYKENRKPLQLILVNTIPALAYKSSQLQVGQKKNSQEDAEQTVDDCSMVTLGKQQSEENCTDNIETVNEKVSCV
Kind of assay: Binding test on [3H] ketanserin, cerebral cortex receptor fraction. Details: species or system SD rats. Particulars: 0.3 nM [3H] ketanserin, 37° C. 15 min, read-out: 5HT2.
Method: Methysergide maleate was dissolved in distilled water before using.
Use was made of SD rats aged 6 to 8 weeks.
The rats were sacrificed by dcapitation to extirpate the cerebra.
Each mixture was homogenized by using a Teflon glass homogenizer and centrifuged as 1,000× g for 10 min. The supernatant thus obtained was further centrifuged at 20,000× g for 20 min. […] After centrifuging at 20,000× g for 20 min, the obtained precipitate was further suspended and centrifuged twice each in the same manner. […] This receptor fraction was stored at −80° C. until using.
To the receptor fraction of the cerebral cortex were added a test compound and 0.3 nM of [^3H] ketanserin and the resultant mixture was incubated at 37° C. for 15 min. Next, it was filtered through a glass filter with the use of a cell harvester. After washing the glass filter with 50 mM Tris hydrochloride (pH 7.4), the radioactivity of the receptor was measured with a liquid scintillation counter. The binding detected in the presence of 1 μM of methysergide was referred to as the nonspecific binding.
IC50 was calculated by the probit method, while Ki was determined in accordance with the following formula: Ki=IC50(1+c/Kd) wherein c represents the concentration of the radioisotope-labeled compound, and Kd represents the dissociation constant of the radioisotope-labeled compound with respect to the receptor determined by Scatchard's analysis.

Where a name gives a salt, the structure may show the parent alone.

`CCN1CCN(c2nc(/C=C/c3ccncc3)cc3ccccc23)CC1` [Example 210, 1-(1-Ethylpiperazin-4-Yl)-3-[Trans-2-(4-Pyridyl)Ethenyl]Isoquinoline]: the Ki in assay [1] worked out at 6.56 nM; in assay [2], 3.95 nM.
On to `CCN1CCN(c2nc(-c3cncc(CCCOC)c3)cc3ccccc23)CC1` [Example 140, 1-(1-Ethylpiperazin-4-yl)-3-[3-(3-Methoxypropyl)Pyridin-5-yl]Isoquinoline Oxalate], for which the Ki in assay [1] was 22.1 nM; in assay [2], 36.7 nM.
Turning to `CCN1CCN(c2nc(-c3ccc(OCCO)c(Cl)c3)cc3ccsc23)CC1` [Example 437, 7-(4-ethylpiperazin-1-yl)-5-[3-chloro-4-(2-hydroxyethoxy)phenyl]thieno[2,3-c]pyridine], the Ki was 30.5 nM in assay [1] and 18.1 nM in assay [2].
In the case of `CCN1CCN(c2nc(CNc3ccc(OC)cc3)cc3ccccc23)CC1` [Example 219, 1-(1-ethylpiperazin-4-yl)-3-(4-methoxyanilinomethyl)isoquinoline oxalate], the results for the Ki in assay [1] and in assay [2] were 2.99 nM and 5.92 nM, respectively.
With `CCN1CCN(c2nc(-c3ccc(OCCCO)cc3)cc3ccoc23)CC1` [Example 317, 7-(1-ethylpiperazin-4-yl)-5-[4-(3-hydroxypropoxy)phenyl]furo[2,3-c]pyridine dihydrochloride], the values for the Ki in assay [1] and in assay [2] were 12.2 nM and 105 nM, respectively.
As for `CCN1CCN(c2nc(-c3ccc(O[C@@H](C)CO)cc3)cc3ccccc23)CC1` [Example 404, 1-(4-ethylpiperazin-1-yl)-3-[4-(2-hydroxy-1-methylethoxy)phenyl]isoquinoline Dihydrochloride], the Ki in assay [1] was determined as 18.8 nM; in assay [2], 1.07 nM.
The like results for `CCN1CCN(c2nc(-c3ccc(N4CCC(O)CC4)nc3)cc3ccsc23)CC1` [Example 265, 5-[2-(4-hydroxypiperidin-1-yl)pyridin-5-yl]-7-(4-ethylpiperazin-1-yl)thieno[2,3-c]pyridine Hydrochloride] were, in that order, 9.73 nM and 114 nM.
With `CCN1CCN(c2nc(-c3ccc(C(F)CCO)cc3)cc3ccsc23)CC1` (stereo not drawn) [Example 256, 7-(1-ethylpiperazin-4-yl)-5-[4-(3-hydroxy-1-fluoropropyl)phenyl]thieno[2,3-c]pyridine Dihydrochloride], the Ki was 9.22 nM in assay [1] and 19.5 nM in assay [2].
For the compound `CCN1CCN(c2nc(-c3ccc(OCC(C)(C)O)cc3)cc3sccc23)CC1` [Example 290, 6-[4-(2-methyl-2-hydroxypropoxy)phenyl]-4-(4-ethylpiperazin-1-yl)thieno[3,2-c]pyridine dihydrochloride], the Ki in assay [1] was found to be 54.7 nM; in assay [2], 1.35 nM.
`CCN1CCN(c2nc(-c3cc(F)c(OCCOC)c(F)c3)cc3ccccc23)CC1` [Example 368, 1-(4-ethylpiperazin-1-yl)-3-(3,5-difluoro-4-methoxyethoxyphenyl)isoquinoline dihydrochloride]: the Ki in assay [1] came out at 32 nM; in assay [2] it was 9.1 nM.
On to `CCN1CCN(c2nc(C#Cc3ccccc3)cc3ccccc23)CC1` [Example 177, 1-(1-Ethylpiperazin-4-Yl)-3-(Phenylethynyl)Isoquinoline Dihydrochloride], for which the Ki in assay [1] was 45 nM; in assay [2] it was 0.5 nM.
The like results for `CCN1CCN(c2nc(-c3ccc(S(C)(=O)=O)cc3)cc3ccsc23)CC1` [Example 445, 7-(4-ethylpiperazin-1-yl)-5-(4-methanesulfonylphenyl)thieno)[2,3-c]pyridine dihydrochloride] were, in that order, 5.46 nM and 90.4 nM.
In the case of `CCN1CCN(c2nc(-c3ccc(C4=CCOCC4)s3)cc3ccccc23)CC1` [Example 176, 3-[2-(5,6-Dihydro-2H-Pyran-4-Yl)Thiophen-5-Yl]-1-[4-Ethylpiperazin-1-Yl)Isoquinoline Hydrochloride], the Ki was found to be 155 nM in assay [1] and 12.4 nM in assay [2].
For `CCN1CCN(c2nc(N3CCN(c4ccccc4)CC3)cc3ccccc23)CC1` [Example 158, 1-(1-ethylpiperazin-4-yl)-3-(1-phenylpiperazin-4-yl)isoquinoline], the Ki in assay [1] amounted to 0.41 nM; in assay [2], 1.08 nM.
As for `CCN1CCN(c2nc(-c3ccc(CC(C)O)cc3)cc3ccccc23)CC1` (stereo not drawn) [Example 376, 1-(4-ethylpiperazin-1-yl)-3-[4-(2-hydroxypropyl)phenyl]isoquinoline oxalate], the Ki in assay [1] is 19.5 nM; in assay [2], 6.3 nM.
In the case of `CCN1CCN(c2nc(-c3ccc(CC(C)=O)cc3)cc3ccccc23)CC1` [Example 375, 1-(4-ethylpiperazin-1-yl)-3-[4-(2-oxopropyl)phenyl]isoquinoline dihydrochloride], the figures for the Ki in assay [1] and in assay [2] were 30.5 nM and 7.6 nM, respectively.
For `CCN1CCN(c2nc(-c3ccc(C4CCCO4)cc3)cc3ccccc23)CC1` (stereo not drawn) [Example 396, 1-(4-Ethylpiperazin-1-yl)-3-[4-(Tetrahydrofuran-2-yl)Phenyl]Isoquinoline Dihydrochloride], the Ki was determined as 50.4 nM in assay [1] and 2.6 nM in assay [2].
In the case of `CCN1CCN(c2nc(-c3ccc(OC[C@@H](C)O)cc3)cc3ccsc23)CC1` [Example 435, 7-(4-ethylpiperazin-1-yl)-5-[4-(2-hydroxypropoxy)phenyl]thieno[2,3-c]pyridine dihydrochloride], the figures for the Ki in assay [1] and in assay [2] were 61.2 nM and 1.14 nM, respectively.
With `CCN1CCN(c2nc(-c3ccc(C4=CCC(O)CC4)cc3)cc3ccccc23)CC1` (stereo not drawn) [Example 64, 3-[4-(4-Hydroxy-1-Cyclohexen-1-Yl)Phenyl]-1-(4-Ethylpiperazin-1-Yl)Isoquinoline Hydrochloride], the Ki in assay [1] turned out to be 87 nM; in assay [2], 8.5 nM.
In the case of `CCN1CCN(c2nc(-c3ccc(OCCO)c(OC)c3)cc3ccccc23)CC1` [Example 340, 1-(4-ethylpiperazin-1-yl)-3-[4-(2-hydroxyethoxy)-3-methoxyphenyl]isoquinoline dihydrochloride], the Ki in assay [1] was determined as 26 nM; in assay [2], 20.7 nM.
Regarding `CCN1CCN(c2nc(-c3ccc(OCCO)nc3)cc3ccsc23)CC1` [Example 268, 5-[2-(2-hydroxyethoxy)pyridin-5-yl]-7-(4-ethylpiperazin-1-yl)thieno[2,3-c]pyridine Oxalate], the values for the Ki in assay [1] and in assay [2] were 16.5 nM and 86 nM, respectively.
Regarding `CCN1CCN(c2nc(-c3ccc(N4CCC(O)CC4)cc3)cc3ccccc23)CC1` [Example 97, 1-(4-Ethylpiperazin-1-yl)-3-[4-(4-hydroxypiperidin-1-yl)phenyl]isoquinoline Trihydrochloride], the Ki in assay [1] was determined as 34.7 nM; in assay [2], 13.3 nM.
With `CCC(O)c1ccc(-c2cc3ccccc3c(N3CCN(CC)CC3)n2)s1` (stereo not drawn) [Example 165, 1-(1-Ethylpiperazin-4-yl)-3-[2-(1-hydroxypropyl)thiophen-5-yl)isoquinoline hydrochloride], the Ki in assay [1] is 32.6 nM; in assay [2], 25.4 nM.
With `CCN1CCN(c2nc(-c3ccc(CS(=O)(=O)N(CC)CC)cc3)cc3ccccc23)CC1` [Example 82, 3-[4-(N,N-diethylamino)sulfonylmethylphenyl]-1-(4-ethylpiperazin-1-yl)isoquinoline Hydrochloride], the Ki in assay [1] was 0.2 nM; in assay [2], 10.8 nM.
With `CCN1CCN(c2nc(-c3ccc(OCC(O)COC)cc3)cc3ccccc23)CC1` (stereo not drawn) [Example 343, 1-(4-ethylpiperazin-1-yl)-3-[4-(2-hydroxy-3-methoxypropoxy)phenyl]isoquinoline dihydrochloride], the results for the Ki in assay [1] and in assay [2] were 35.7 nM and 5.7 nM, respectively.
As to `CCN1CCN(c2nc(-c3ccc(S(C)(=O)=O)cc3)cc3ccccc23)CC1` [Example 342, 1-(4-ethylpiperazin-1-yl)-3-(4-methylsulfonylphenyl)isoquinoline dihydrochloride], the Ki in assay [1] was found to be 6.2 nM; in assay [2], 14.9 nM.
Consider `CCN1CCN(c2nc(-c3ccc(OC)cc3)cc3cccnc23)CC1` [Example 244, 8-(4-ethylpiperazin-1-yl)-6-(4-methoxyphenyl)pyrido[2,3-c]pyridine Hydrochloride], for which the Ki in assay [1] was determined as 27.1 nM; in assay [2], 78.6 nM.
With `CCN1CCN(c2nc(-c3ccc(O[C@H](C)CO)cc3)cc3sccc23)CC1` (stereo in doubt) [Example 463, 4-(4-ethylpiperazin-1-yl)-6-[4-(2-hydroxy-1-methylethoxy)phenyl]thieno[3,2-c]pyridine dihydrochloride], the values for the Ki in assay [1] and in assay [2] were 6.98 nM and 20.9 nM, respectively.
Regarding `CCN1CCN(c2nc(-c3ccc(OCCO)cc3)cc3ccoc23)CC1` [Example 301, 7-(1-Ethylpiperazin-4-yl)-5-[4-(2-hydroxyethoxy)phenyl]furo[2,3-c]pyridine oxalate], the values for the Ki in assay [1] and in assay [2] were 9.15 nM and 12.7 nM, respectively.
Take `CCN1CCN(c2nc(-c3ccc(S(=O)(=O)CCCF)cc3)cc3ccccc23)CC1` [Example 355, 1-(4-ethylpiperazin-1-yl)-3-[4-(3-fluoropropyl)sulfonylphenyl]isoquinoline dihydrochloride]: the values for the Ki in assay [1] and in assay [2] were 2.6 nM and 4.9 nM, respectively.
